Source: PubChem BioAssay AID2060499 (Molecular Pharmacology Branch, DTP, NCI, 2025)

System: 777334-354-R2-J4-PDC tumor spheroids with HUVEC/MSC, viability
Test: Anticancer human tumor 777334-354-R2-J4-PDC patient-derived pancreatic adenocarcinoma cell line growth inhibition [GQUAD]
Conditions: for IC50: curve of first compound; for viability, T/C: stronger effect = lower value; active = viability on the fitted dose curve at most 10% of control; inactive = the rest
Method in brief: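 Viability of tumor cells grown as complex spheroids with endothelial and stromal cells, exposed to drug combinations. Top concentration at or near clinical Cmax (else 10 microM), diluted in half-log increments.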

[1] = second compound 0.0316 µM, first compound 0.0316 µM
[2] = second compound 0.0316 µM, first compound 0.1 µM
[3] = second compound 0.0316 µM, first compound 0.316 µM
[4] = second compound 0.0316 µM, first compound 1 µM
[5] = second compound 0.0316 µM, first compound 3.16 µM
[6] = second compound 0.0316 µM, first compound 10 µM
[7] = second compound 0.1 µM, first compound 0.0316 µM
[8] = second compound 0.1 µM, first compound 0.1 µM
[9] = second compound 0.1 µM, first compound 0.316 µM
[10] = second compound 0.1 µM, first compound 1 µM
[11] = second compound 0.1 µM, first compound 3.16 µM
[12] = second compound 0.1 µM, first compound 10 µM
[13] = second compound 0.316 µM, first compound 0.0316 µM
[14] = second compound 0.316 µM, first compound 0.1 µM
[15] = second compound 0.316 µM, first compound 0.316 µM
[16] = second compound 0.316 µM, first compound 1 µM
[17] = second compound 0.316 µM, first compound 3.16 µM
[18] = second compound 0.316 µM, first compound 10 µM
[19] = second compound 1 µM, first compound 0.0316 µM
[20] = second compound 1 µM, first compound 0.1 µM
[21] = second compound 1 µM, first compound 0.316 µM
[22] = second compound 1 µM, first compound 1 µM
[23] = second compound 1 µM, first compound 3.16 µM
[24] = second compound 1 µM, first compound 10 µM
[25] = second compound 3.16 µM, first compound 0.0316 µM
[26] = second compound 3.16 µM, first compound 0.1 µM
[27] = second compound 3.16 µM, first compound 0.316 µM
[28] = second compound 3.16 µM, first compound 1 µM
[29] = second compound 3.16 µM, first compound 3.16 µM
[30] = second compound 3.16 µM, first compound 10 µM
[31] = second compound 10 µM, first compound 0.0316 µM
[32] = second compound 10 µM, first compound 0.1 µM
[33] = second compound 10 µM, first compound 0.316 µM
[34] = second compound 10 µM, first compound 1 µM
[35] = second compound 10 µM, first compound 3.16 µM
[36] = second compound 10 µM, first compound 10 µM
[37] = second compound 0.0316 µM, first compound 0.000999 µM
[38] = second compound 0.0316 µM, first compound 0.00316 µM
[39] = second compound 0.0316 µM, first compound 0.00999 µM
[40] = second compound 0.0316 µM, first compound 0.0999 µM
[41] = second compound 0.1 µM, first compound 0.000999 µM
[42] = second compound 0.1 µM, first compound 0.00316 µM
[43] = second compound 0.1 µM, first compound 0.00999 µM
[44] = second compound 0.1 µM, first compound 0.0999 µM
[45] = second compound 0.316 µM, first compound 0.000999 µM
[46] = second compound 0.316 µM, first compound 0.00316 µM
[47] = second compound 0.316 µM, first compound 0.00999 µM
[48] = second compound 0.316 µM, first compound 0.0999 µM
[49] = second compound 1 µM, first compound 0.000999 µM
[50] = second compound 1 µM, first compound 0.00316 µM
[51] = second compound 1 µM, first compound 0.00999 µM
[52] = second compound 1 µM, first compound 0.0999 µM
[53] = second compound 3.16 µM, first compound 0.000999 µM
[54] = second compound 3.16 µM, first compound 0.00316 µM
[55] = second compound 3.16 µM, first compound 0.00999 µM
[56] = second compound 3.16 µM, first compound 0.0999 µM
[57] = second compound 10 µM, first compound 0.000999 µM
[58] = second compound 10 µM, first compound 0.00316 µM
[59] = second compound 10 µM, first compound 0.00999 µM
[60] = second compound 10 µM, first compound 0.0999 µM
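Also: spheroids exposed to compounds for 7 days before readout.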

CC(=O)O[C@H]1C(=O)[C@@]2(C)[C@H]([C@H](OC(=O)c3ccccc3)[C@]3(O)C[C@H](OC(=O)[C@H](O)[C@@H](NC(=O)c4ccccc4)c4ccccc4)C(C)=C1C3(C)C)[C@]1(OC(C)=O)CO[C@@H]1C[C@@H]2O + Cc1cnc(CNC(=O)c2c(=O)c3ccc(N4CCCN(C)CC4)nc3n3c2sc2ccccc23)cn1
> 10000 nM: IC50 (second compound 0.0316 µM) | IC50 (second compound 0.1 µM) | IC50 (second compound 0.316 µM) | IC50 (second compound 1 µM) | IC50 (second compound 3.16 µM) | IC50 (second compound 10 µM)
inactive: viability, T/C [1] 70% | viability, T/C [2] 49.9% | viability, T/C [3] 53.5% | viability, T/C [4] 43% | viability, T/C [5] 52.1% | viability, T/C [6] 52.8% | viability, T/C [7] 78.2% | viability, T/C [8] 54.7% | viability, T/C [9] 61.6% | viability, T/C [10] 45.4% | viability, T/C [11] 60.9% | viability, T/C [12] 59.7% | viability, T/C [13] 74.3% | viability, T/C [14] 61.9% | viability, T/C [15] 61.5% | viability, T/C [16] 68.1% | viability, T/C [17] 64.2% | viability, T/C [18] 62.1% | viability, T/C [19] 65% | viability, T/C [20] 63.5% | viability, T/C [21] 61% | viability, T/C [22] 67.3% | viability, T/C [23] 80.5% | viability, T/C [24] 70.1% | viability, T/C [25] 57% | viability, T/C [26] 66.5% | viability, T/C [27] 63.6% | viability, T/C [28] 58.4% | viability, T/C [29] 71.6% | viability, T/C [30] 74.1% | viability, T/C [31] 61.2% | viability, T/C [32] 50.1% | viability, T/C [33] 55.8% | viability, T/C [34] 58.4% | viability, T/C [35] 60.6% | viability, T/C [36] 52.3%

CCc1c2c(nc3ccc(O)cc13)-c1cc3c(c(=O)n1C2)COC(=O)[C@]3(O)CC + Cc1cnc(CNC(=O)c2c(=O)c3ccc(N4CCCN(C)CC4)nc3n3c2sc2ccccc23)cn1
4.38 nM: IC50 (second compound 0.0316 µM)
1.84 nM: IC50 (second compound 10 µM)
inactive: viability, T/C [37] 84.8% | viability, T/C [38] 49.6% | viability, T/C [39] 39.5% | viability, T/C [1] 25.7% | viability, T/C [40] 13.8% | viability, T/C [41] 84.4% | viability, T/C [42] 54.1% | viability, T/C [43] 38.1% | viability, T/C [7] 23.2% | viability, T/C [44] 17.4% | viability, T/C [9] 10.6% | viability, T/C [45] 63.6% | viability, T/C [46] 54.1% | viability, T/C [47] 37.1% | viability, T/C [13] 29% | viability, T/C [48] 19.1% | viability, T/C [15] 10.3% | viability, T/C [49] 56% | viability, T/C [50] 56.8% | viability, T/C [51] 40.6% | viability, T/C [19] 32.1% | viability, T/C [52] 16.7% | viability, T/C [53] 49.5% | viability, T/C [54] 49.4% | viability, T/C [55] 40.1% | viability, T/C [25] 28.4% | viability, T/C [56] 13.8% | viability, T/C [57] 57.5% | viability, T/C [58] 40.6% | viability, T/C [59] 33.6% | viability, T/C [31] 27.9%
4.44 nM: IC50 (second compound 0.1 µM)
active: viability, T/C [3] 7.76% | viability, T/C [21] 7.38% | viability, T/C [27] 4.92% | viability, T/C [60] 0.34% | viability, T/C [33] 0.24%
4.62 nM: IC50 (second compound 1 µM)
3.86 nM: IC50 (second compound 0.316 µM)
1.2 nM: IC50 (second compound 3.16 µM)

COc1ncnc(C2CC2)c1-c1ncc2cnn(Cc3ccc(-c4nc(C(F)(F)F)cn4C(C)C)cc3)c2n1 + Cc1cnc(CNC(=O)c2c(=O)c3ccc(N4CCCN(C)CC4)nc3n3c2sc2ccccc23)cn1
inactive: viability, T/C [1] 106% | viability, T/C [2] 94.8% | viability, T/C [3] 101% | viability, T/C [4] 92.5% | viability, T/C [5] 106% | viability, T/C [6] 95% | viability, T/C [7] 91.5% | viability, T/C [8] 83.8% | viability, T/C [9] 97.6% | viability, T/C [10] 80.8% | viability, T/C [11] 92.4% | viability, T/C [12] 90.3% | viability, T/C [13] 82.8% | viability, T/C [14] 81% | viability, T/C [15] 72% | viability, T/C [16] 85.8% | viability, T/C [17] 87.8% | viability, T/C [18] 86.5% | viability, T/C [19] 65.3% | viability, T/C [20] 75.7% | viability, T/C [21] 67.4% | viability, T/C [22] 76.3% | viability, T/C [23] 77.4% | viability, T/C [24] 82.1% | viability, T/C [25] 64.3% | viability, T/C [26] 73.5% | viability, T/C [27] 55% | viability, T/C [28] 65.7% | viability, T/C [29] 80.8% | viability, T/C [30] 70.3% | viability, T/C [31] 55.5% | viability, T/C [32] 63.6% | viability, T/C [33] 57.9% | viability, T/C [34] 59.2% | viability, T/C [35] 58.2% | viability, T/C [36] 56.7%
> 10000 nM: IC50 (second compound 0.0316 µM) | IC50 (second compound 0.1 µM) | IC50 (second compound 0.316 µM) | IC50 (second compound 1 µM) | IC50 (second compound 3.16 µM) | IC50 (second compound 10 µM)

Cc1[nH]c2ccccc2c1CCNCc1ccc(/C=C/C(=O)NO)cc1 + Cc1cnc(CNC(=O)c2c(=O)c3ccc(N4CCCN(C)CC4)nc3n3c2sc2ccccc23)cn1
89.3 nM: IC50 (second compound 3.16 µM)
inactive: viability, T/C [37] 95.1% | viability, T/C [38] 89.1% | viability, T/C [39] 93.1% | viability, T/C [1] 73.6% | viability, T/C [40] 57.9% | viability, T/C [3] 35.5% | viability, T/C [41] 83.1% | viability, T/C [42] 69.4% | viability, T/C [43] 68.1% | viability, T/C [7] 73.2% | viability, T/C [44] 58.9% | viability, T/C [9] 35.3% | viability, T/C [45] 73.7% | viability, T/C [46] 79.5% | viability, T/C [47] 58.2% | viability, T/C [13] 69.3% | viability, T/C [48] 53.7% | viability, T/C [15] 32.9% | viability, T/C [49] 70.8% | viability, T/C [50] 66.2% | viability, T/C [51] 68.2% | viability, T/C [19] 58.1% | viability, T/C [52] 56% | viability, T/C [21] 26.4% | viability, T/C [53] 58% | viability, T/C [54] 58.6% | viability, T/C [55] 59.4% | viability, T/C [25] 53.8% | viability, T/C [56] 50.3% | viability, T/C [27] 18.6% | viability, T/C [57] 53.2% | viability, T/C [58] 46.2% | viability, T/C [59] 51.7% | viability, T/C [31] 46.1% | viability, T/C [60] 42.6%
155 nM: IC50 (second compound 0.1 µM)
< 0.999 nM: IC50 (second compound 10 µM)
active: viability, T/C [33] 1.07%
122 nM: IC50 (second compound 0.316 µM)
114 nM: IC50 (second compound 1 µM)
144 nM: IC50 (second compound 0.0316 µM)
